Measured values as given in US5124083A, “3-substituted and 3,3-disubstituted 4-oxoretinoic acids and their esters” (Southern Research Institute, priority 1990, dated 1992).
Where two headings read alike, the source gives them in different places.

Legend:
[1] = system: tracheas obtained from vitamin A-deficient hamsters; assay: Hamster trachea organ culture assay (reversal of squamous metaplasia and keratinization); assay type: cell-based; conditions: for EC50: Mesocricetus auratus, reversal of keratinization, vitamin A-deficient hamster trachea in culture, read-out: ED50, hamster trachea organ culture assay; for Activity in hamster-trachea assay compared with the retinamides of Table II: compared with retinamides in lower part of Table II
Protocol: Some of these 4-oxoretinoic acid analogues were evaluated in the hamster-trachea organ-culture assay described in Clamon et al., Nature, Vol. 250, pages 64-66, 1974; Sporn et al., Nature, Vol. 263, pages 110-113, 1976; and Newton et al., Cancer Res., Vol. 40, pages 3413-3425, 1980. This bioassay is specific for retinoids and assesses the capacity of retinoids to reverse keratinization in vitamin A-deficient hamster trachea in culture. Therefore, it is a measure of the capacity of a retinoid to control differentiation of epithelial cells, and "it is believed to have significant predictive value for the potential use of a new retinoid for prevention of epithelial cancer" (Newton et al., Cancer Res., Vol. 40, pages 3413-3425, 1980). (See Example 25). Also, data obtained by Newton et al., (Cancer Res., Vol. 40, pages 3413-3425, 1980) in assays of six all-trans or 13-cis retinamides are included in Table II for comparison.
Hamster Trachea Organ Culture Assay
4-Oxoretinoids were evaluated for their capacity to reverse squamous metaplasia and keratinization in organ cultures of tracheas obtained from vitamin A-deficient hamsters. The methods and procedures were those described by Sporn and co-workers (Clamon et al. and Newton et al., loc. cit.).

ornithine decarboxylase = assay: Ornithine decarboxylase assay (reduction of TPA-induced ODC activity in mouse skin); assay type: in vivo; conditions: for Ornithine Decarboxylase Activity, Average % of Control Group: TPA-induced ODC, mouse skin, nanomoles of carbon dioxide per milligram of protein per half hour; for ODC activity as % of the ODC activity in the control mice, summary range: TPA-induced, summary of Table III in text
Text: A bioassay in vivo for activity in the prevention of carcinogen-induced cancer is based on the reduction by a retinoid of the amount of ornithine decarboxylase (ODC) induced in mouse skin by the tumor promoter 12-O-tetradecanoylphorbol 13-acetate (TPA). Verma et al. (Cancer Research, Vol. 38, pages 793-801, 1978), reported that "application of the potent tumor-promoting agent 12-O-tetradecanoylphorbol 13-acetate (TPA) to mouse skin leads to a rapid and transient induction of epidermal ornithine decarboxylase activity". They state, further, that "inhibition of this enzyme activity by retinoids may be a simple and rapid in vivo test for assessing the potential prophylactic activity of new synthetic retinoids". All of the tested 4-oxoretinoid analogues reduced TPA-induced ODC activity. The compounds of Examples 2-4, 8, 11, 17, 18, and 20-23 reduced ODC activity to 22-47% of the ODC activity in the control mice and are, therefore, very active in this assay for cancer chemopreventive activity.
Ornithine Decarboxylase Assay
Assays for the reduction by 4-oxoretinoids of ornithine decarboxylase activity induced by 12-O-tetradecanoylphorbol 13-acetate (TPA) were performed by the procedure of Verma et al., Cancer Research, Vol. 38, pages 793-801 (1978).

[2] = system: F9 Embryonal Carcinoma Cells; assay: Induction of differentiation of F9 embryonal carcinoma cells (plasminogen activator release); assay type: cell-based; conditions: Mus musculus, 96 h, by release of plasminogen activator, 4 days, read-out: Differentiation of F9 Embryonal Carcinoma Cells ED50
Protocol: Induction of differentiation of cancer cells is a potential mode of cancer chemoprevention. […] Elevated release of plasminogen activator by F9 cells in the presence of retinoids is a marker for differentiation. Induction of differentiation of F9 cells by several of the retinoids of this invention was evaluated, and the results are summarized in Table I (Example 24) as values of ED50. All of the tested 4-oxoretionoic acid analogues induce differentiation at low concentrations (ED50 =[…] -10^-10 molar) and, therefore, are very effective inducers of differentiation of mouse F9 embryonal carcinoma cells. […] Under the conditions of this assay, ester derivatives might be hydrolyzed partially to the carboxylic acids.
Assay for Induction of Differentiation of Cancer Cells to Normal Cells
Evaluation of the differentiation potential of 4-oxoretinoids was carried out with an embryonal carcinoma cell line, F9. Elevation of plasminogen activator release by F9 cells in the presence of retinoids is a marker for inducing differentiation into parietal endoderm (Strickland and Mahdavi, loc. cit.; Strickland and Sawey, loc. cit.). F9 cells were grown at a density of 1×10^5 cells/mL in the presence or absence of […], 10^-8, 10^-9, 10^-10, and 10^-11 or molar retinoids for 4 days. Aliquots (20 μL) of the harvest fluid were mixed with 0.13 μM plasminogen, 0.3 mM H-D-Val-Leu-Lys-p-nitroaniline (a synthetic substrate of plasmin), 0.1% Tween 80, and 25 μg of fibrinogen fragments in a final volume of 0.2 mL of Tris-HCl, pH 7.5. After incubation for 4 hours at 25° C., the generation of p-nitroaniline was measured by absorbance at 405 nm. The average absorbencies from duplicate experiments were plotted (semilog plots) versus concentration (molarity). The ED50 values were determined by finding the midpoint between the maximal and minimal absorbance values.
Induction of Differentiation of Cancer Cells
^a ED50 is the molar concentration of the retinoid that causes
50% induction of differentiation of the carcinoma cells as measured by th
release of plasminogen activator.

skin papillomas = assay: Mouse antipapilloma assay (DMBA-TPA skin papillomas); assay type: in vivo; set-up: Average Number of Skin Papillomas/Mouse as % of No. of Papillomas/Mouse in the DMBA-TPA Control Group of Mice: concentration or dose not given beside the values; conditions: for Average Number of Skin Papillomas/Mouse as % of No. of Papillomas/Mouse in the DMBA-TPA Control Group of Mice: DMBA-initiated, TPA-promoted mouse skin; for Reduction of papilloma formation, summary range: range over the six most active retinoids; for Papilloma formation as % of papilloma formation in untreated control mice, summary range: summary of Table IV
Text: Application of the carcinogen DMBA to mouse skin followed by application of the tumor promoter TPA causes the formation of papillomas. Certain retinoids applied to the same area of mouse skin reduce or prevent papilloma formation (e.g. H. Mayer, W. Bollag, R. Hanni, and R. Ruegg, Experientia, Vol 34, pages 1105-1119, 1978; R. K. Boutwell and A. K. Verma, Pure and Applied Chemistry, Vol. 51, pages 857-866, 1979). The antipapilloma assay is a direct test of the capability of a retinoid to prevent tumor formation in vivo. It has been used to select retinoids for clinical development. The tested retinoids reduced papilloma formation to 27-83% of papilloma formation in untreated control mice. […] The number of papillomas in mice treated with either of these six retinoids was 27-40% of the number of papillomas on untreated mice; or, differently expressed, papilloma formation was reduced by 60-73%.
In this assay, tumors are initiated in mice by applying the carcinogen DMBA to the skin of mice and subsequently applying the promoter TPA. The method is that of Verma et al., Cancer Research, Vol. 39, pages 419-425, 1979.

[3] = system: tracheas obtained from vitamin A-deficient hamsters; conditions: value taken from Newton et al.; read-out: ED50, hamster trachea organ culture assay; cited from earlier work
[4] = molar concentration causing 50% induction of differentiation

EC50 [1] [nM] | SMILES | Ornithine Decarboxylase Activity, Average % of Control Group (ornithine decarboxylase) | EC50 [2, 4] [nM] | ODC activity as % of the ODC activity in the control mice, summary range (ornithine decarboxylase) | Average Number of Skin Papillomas/Mouse as % of No. of Papillomas/Mouse in the DMBA-TPA Control Group of Mice (skin papillomas) [%] | Reduction of papilloma formation, summary range (skin papillomas) | Papilloma formation as % of papilloma formation in untreated control mice, summary range (skin papillomas) | EC50 [3] [nM] | EC50 ([2]; average of two determinations, 50% induction of differentiation) [nM] | Activity in hamster-trachea assay compared with the retinamides of Table II [1]
11 | COC(=O)/C=C(C)/C=C/C=C(C)/C=C/C1=C(C)C(=O)C(Cc2ccccc2)CC1(C)C (stereo not drawn) [Example 9, Methyl 4-Oxo-3-(phenylmethyl)retinoate] | 77 % of Control Group |  |  |  |  |  |  |  | 
 | C#CCC1CC(C)(C)C(/C=C/C(C)=C/C=C/C(C)=C/C(=O)OC)=C(C)C1=O (stereo not drawn) [Example 8, Methyl 4-Oxo-3-(2-propynyl)retinoate] | 35 % of Control Group | 1.5 | 22-47 % of the ODC activity in the control mice | 40 | 60-73% | 27-40% |  |  | 
 | CCC1CC(C)(C)C(/C=C/C(C)=C/C=C/C(C)=C/C(=O)OC)=C(C)C1=O (stereo not drawn) [Example 4, Methyl 3-Ethyl-4-oxoretinoate] | 31 % of Control Group |  |  | 83 |  |  |  |  | 
 | CCNC(=O)/C=C(C)/C=C/C=C(C)/C=C/C1=C(C)CCCC1(C)C [All-trans-N-ethylretinamide] |  |  |  |  |  |  | 1 |  | 
4 | COC(=O)/C=C(C)/C=C/C=C(C)/C=C/C1=C(C)C(=O)C(C)CC1(C)C (stereo not drawn) [Example 2, Methyl 3-Methyl-4-oxoretinoate] | 33 % of Control Group | 2 |  | 27 | 60-73% | 27-40% |  |  | 
 | CC1=C(/C=C/C(C)=C/C=C/C(C)=C/C(=O)O)C(C)(C)CC(C)(C)C1=O [Example 23, 3.3-Dimethyl-4-Oxoretinoic Acid] | 26 % of Control Group |  |  | 27 | 60-73% | 27-40% |  | 0.23 | 
0.2 | C#CCC1CC(C)(C)C(/C=C/C(C)=C/C=C/C(C)=C/C(=O)O)=C(C)C1=O (stereo not drawn) [Example 20] | 47 % of Control Group | 0.6 |  | 64 |  |  |  |  | comparable
 | CCC1CC(C)(C)C(/C=C/C(C)=C/C=C/C(C)=C/C(=O)O)=C(C)C1=O (stereo not drawn) [Example 18, 3-Ethyl-4Oxoretionoic Acid] | 40 % of Control Group | 5 | 22-47 % of the ODC activity in the control mice | 57 |  |  |  |  | 
2 | CC1=C(/C=C/C(C)=C/C=C/C(C)=C/C(=O)O)C(C)(C)CC(C)C1=O (stereo not drawn) [Example 17, 3-Methyl-4-oxoretinoic Acid] | 33 % of Control Group | 0.9 | 22-47 % of the ODC activity in the control mice | 32 | 60-73% | 27-40% |  |  | 
 | CC1=C(/C=C/C(C)=C/C=C/C(C)=C/C(=O)O)C(C)(C)CC(CC=Cc2ccccc2)C1=O (stereo not drawn) [Example 22, 3-Cinnamyl-4-oxoretinoic Acid] | 23 % of Control Group | 3.5 |  | 39 | 60-73% | 27-40% |  |  | 
0.3 | COC(=O)/C=C(C)/C=C/C=C(C)/C=C/C1=C(C)C(=O)C(C)(C)CC1(C)C [Example 11, Methyl 3,3-Dimethyl-4-oxoretinoate] | 22 % of Control Group | 0.9 | 22-47 % of the ODC activity in the control mice | 27 | 60-73% | 27-40% |  |  | comparable
 | C=CCC1CC(C)(C)C(/C=C/C(C)=C/C=C/C(C)=C/C(=O)OC)=C(C)C1=O (stereo not drawn) [Example 7, Methyl 4-Oxo-3-(2-propenyl)retinoate] | 56 % of Control Group |  |  | 42 |  |  |  |  | 
 | COC(=O)/C=C(C)/C=C/C=C(C)/C=C/C1=C(C)C(=O)C(CC=Cc2ccccc2)CC1(C)C (stereo not drawn) [Example 3, Methyl 3-Cinnamyl-4-oxoretinoate] | 31 % of Control Group |  |  |  |  |  |  |  | 
11 | CC1=C(/C=C/C(C)=C/C=C/C(C)=C/C(=O)O)C(C)(C)CC(Cc2ccccc2)C1=O (stereo not drawn) [Example 21] | 42 % of Control Group | 0.8 |  |  |  |  |  |  | 
 | C=CCC1CC(C)(C)C(/C=C/C(C)=C/C=C/C(C)=C/C(=O)O)=C(C)C1=O (stereo not drawn) [Example 19, 4-Oxo-3-(2-propenyl)retinoic Acid] | 68 % of Control Group | 0.7 |  | 47 |  |  |  |  | 
